Where no end group is shown, it is not given here.
Tested on: ovalbumin-sensitized mice
Assay: Histology of lungs
Assay type: in vivo, BALB/c mice
Conditions: compared with ovalbumin-sensitized and -challenged animals
Procedure: Histology was performed according to established methods (McCusker, et al. (2002) supra). Briefly, lungs were slowly inflated with 1 mL of formalin, isolated, and placed entirely in formalin. The specimens were embedded in paraffin and […] sections prepared. Slides were stained with Giemsa and examined under standard light microscopy.

Sequence: YARAAARQARAGRGFVSTT [STAT-6-CP, STAT-6 Tyr-641 mutant, control peptide]
- Ovalbumin-induced lung inflammation, including airway eosinophilia (histology): did not differ

Source: patent publication US7829528B2, “Compositions and methods for treating STAT-6 associated diseases or conditions” (The Rockefeller University, priority 2004, dated 2010)
